# Experimental data from patent publication US12077503B2, “Substituted cyclic amides and their use as herbicides” (FMC CORPORATION, priority 2015, dated 2024).
# Columns and labels:
# Assay type in all cases: in vivo
# [1] = system: nutsedge, yellow (yellow nutsedge, Cyperus esculentus); assay: Test C preemergence; conditions: scale 0 to 100, 0 no effect, 100 complete control
# Description: Seeds of plant species selected from blackgrass (Alopecurus myosuroides), ryegrass, Italian (Italian ryegrass, Lolium multiflorum), wheat (winter wheat, Triticum aestivum), Galium (catchweed bedstraw, Galium aparine), corn (Zea mays), crabgrass, large (large crabgrass, Digitaria sanguinalis), foxtail, giant (giant foxtail, Setaria faberii), johnsongrass (Sorghum halepense), lambsquarters (Chenopodium album), morningglory (Ipomoea coccinea), nutsedge, yellow (yellow nutsedge, Cyperus esculentus), pigweed (Amaranthus retroflexus), ragweed (common ragweed, Ambrosia elatior), soybean (Glycine max), barnyardgrass (Echinochloa crus-galli), oilseed rape (Brassica napus), waterhemp (common waterhemp, Amaranthus rudis) and velvetleaf (Abutilon theophrasti) were planted into a blend of loam soil and sand and treated preemergence with test chemicals formulated in a non-phytotoxic solvent mixture which included a surfactant.
# At the same time, plants selected from these crop and weed species and also Kochia (Kochia scoparia), oat, wild (wild oat, Avena fatua), and chickweed (common chickweed, Stellaria media) were planted in pots containing Sunshine Redi-Earth® planting medium comprising spaghnum peat moss, vermiculite, starter nutrients and dolomitic limestone and treated with postemergence applications of test chemicals formulated in the same manner. Plants ranged in height from 2 to 18 cm (1- to 4-leaf stage) for postemergence treatments. Treated plants and controls were maintained in a greenhouse for 13 to 15 d, after which time all species were compared to controls and visually evaluated. Plant response ratings, summarized in Table C, are based on a scale of 0 to 100 where 0 is no effect and 100 is complete control. A dash (-) response means no test result.
# [2] = system: pigweed (Amaranthus retroflexus); assay: Test A preemergence; conditions: for Plant response rating, Pigweed: 125 g ai/ha, preemergence, 0 to 100 scale (0 no effect, 100 complete control); for Pigweed plant response rating (0 to 100 scale, 0 is no effect, 100 is complete control): Preemergence, 500 g ai/ha, visual injury approx. 10 d
# [3] = system: barnyardgrass (Echinochloa crus-galli); assay: Test A preemergence; conditions: for Plant response rating, Barnyardgrass: 125 g ai/ha, preemergence, 0 to 100 scale (0 no effect, 100 complete control); for Barnyardgrass plant response rating (0 to 100 scale, 0 is no effect, 100 is complete control): Preemergence, 500 g ai/ha, visual injury approx. 10 d
# Outline: (§1)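 Visual injury scores from 0, no effect, to 100, complete control, were assigned versus untreated controls roughly 10 d after treatment in the greenhouse. Test chemicals, formulated with surfactant in a non-phytotoxic solvent, were applied to planted seeds as a preemergence soil spray or postemergence to one- to two-leaf plants 2 to 10 cm tall, in loam–sand soil.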
# [4] = system: ragweed (common ragweed, Ambrosia elatior); assay: Test A preemergence; conditions: for Plant response rating, Ragweed: 125 g ai/ha, preemergence, 0 to 100 scale (0 no effect, 100 complete control)
# Outline: as §1
# [5] = system: ryegrass, Italian (Italian ryegrass, Lolium multiflorum); assay: Test A preemergence; conditions: for Plant response rating, Ryegrass, Italian: 125 g ai/ha, preemergence, 0 to 100 scale (0 no effect, 100 complete control); for Ryegrass, Italian plant response rating (0 to 100 scale, 0 is no effect, 100 is complete control): Preemergence, 500 g ai/ha, visual injury approx. 10 d
# Outline: as §1
# [6] = system: giant foxtail (Setaria faberii); assay: Test A preemergence; conditions: for Plant response rating, Foxtail, Giant: 125 g ai/ha, preemergence, 0 to 100 scale (0 no effect, 100 complete control); for Foxtail, Giant plant response rating (0 to 100 scale, 0 is no effect, 100 is complete control): Preemergence, 500 g ai/ha, visual injury approx. 10 d
# Outline: as §1
# [7] = system: Kochia (Kochia scoparia); assay: Test A preemergence; conditions: for Plant response rating, Kochia: 125 g ai/ha, preemergence, 0 to 100 scale (0 no effect, 100 complete control); for Kochia plant response rating (0 to 100 scale, 0 is no effect, 100 is complete control): Preemergence, 500 g ai/ha, visual injury approx. 10 d
# Outline: as §1
# [8] = system: sedge, umbrella (small-flower umbrella sedge, Cyperus difformis); assay: Test B flooded paddy test; conditions: Flood, 0 to 100 scale where 0 is no effect and 100 is complete control, 13 to 15 d
# Outline: (§2)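 Visual ratings (0 none to 100 complete control) are relative to untreated plants, taken 13–15 d after treatment in a greenhouse. Test material went straight into floodwater standing 3 cm above the soil, kept constant, on plants at the 2-leaf stage.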
# [9] = system: barnyardgrass (Echinochloa crus-galli); assay: Test B flooded paddy test; conditions: Flood, 0 to 100 scale where 0 is no effect and 100 is complete control, 13 to 15 d
# Outline: as §2
# [10] = system: ducksalad (Heteranthera limosa); assay: Test B flooded paddy test; conditions: Flood, 0 to 100 scale where 0 is no effect and 100 is complete control, 13 to 15 d
# Outline: as §2
# [11] = system: rice (Oryra sativa); assay: Test B flooded paddy test; conditions: Flood, 0 to 100 scale where 0 is no effect and 100 is complete control, 13 to 15 d
# Outline: as §2
# [12] = system: corn (Zea mays); assay: Test A postemergence; conditions: postemergence; for Corn plant response rating: 125 g ai/ha, visual injury rating on 0 to 100 scale (0 no effect, 100 complete control), approx. 10 d; for Plant response rating, Corn: 500 g ai/ha, 0 to 100 scale, 0 no effect, 100 complete control
# Outline: as §1
# [13] = system: pigweed (Amaranthus retroflexus); assay: Test A postemergence; conditions: postemergence; for Pigweed plant response rating: 125 g ai/ha, visual injury rating on 0 to 100 scale (0 no effect, 100 complete control), approx. 10 d; for Plant response rating, Pigweed: 500 g ai/ha, 0 to 100 scale, 0 no effect, 100 complete control
# Outline: as §1
# [14] = system: barnyardgrass (Echinochloa crus-galli); assay: Test A postemergence; conditions: postemergence; for Barnyardgrass plant response rating: 125 g ai/ha, visual injury rating on 0 to 100 scale (0 no effect, 100 complete control), approx. 10 d; for Plant response rating, Barnyardgrass: 500 g ai/ha, 0 to 100 scale, 0 no effect, 100 complete control
# Outline: as §1
# [15] = system: ragweed (common ragweed, Ambrosia elatior); assay: Test A postemergence; conditions: postemergence; for Ragweed plant response rating: 125 g ai/ha, visual injury rating on 0 to 100 scale (0 no effect, 100 complete control), approx. 10 d; for Plant response rating, Ragweed: 500 g ai/ha, 0 to 100 scale, 0 no effect, 100 complete control
# Outline: as §1
# [16] = system: ryegrass, Italian (Italian ryegrass, Lolium multiflorum); assay: Test A postemergence; conditions: postemergence; for Ryegrass, Italian plant response rating: 125 g ai/ha, visual injury rating on 0 to 100 scale (0 no effect, 100 complete control), approx. 10 d; for Plant response rating, Ryegrass, Italian: 500 g ai/ha, 0 to 100 scale, 0 no effect, 100 complete control
# Outline: as §1
# [17] = system: Galium (catchweed bedstraw, Galium aparine); assay: Test A postemergence; conditions: postemergence; for Galium plant response rating: 125 g ai/ha, visual injury rating on 0 to 100 scale (0 no effect, 100 complete control), approx. 10 d; for Plant response rating, Galium: 500 g ai/ha, 0 to 100 scale, 0 no effect, 100 complete control
# Outline: as §1
# [18] = system: wheat (Triticum aestivum); assay: Test A postemergence; conditions: postemergence; for Wheat plant response rating: 125 g ai/ha, visual injury rating on 0 to 100 scale (0 no effect, 100 complete control), approx. 10 d; for Plant response rating, Wheat: 500 g ai/ha, 0 to 100 scale, 0 no effect, 100 complete control
# Outline: as §1
# [19] = system: giant foxtail (Setaria faberii); assay: Test A postemergence; conditions: postemergence; for Foxtail, Giant plant response rating: 125 g ai/ha, visual injury rating on 0 to 100 scale (0 no effect, 100 complete control), approx. 10 d; for Plant response rating, Foxtail, Giant: 500 g ai/ha, 0 to 100 scale, 0 no effect, 100 complete control
# Outline: as §1
# [20] = system: blackgrass (Alopecurus myosuroides); assay: Test A postemergence; conditions: postemergence; for Blackgrass plant response rating: 125 g ai/ha, visual injury rating on 0 to 100 scale (0 no effect, 100 complete control), approx. 10 d; for Plant response rating, Blackgrass: 500 g ai/ha, 0 to 100 scale, 0 no effect, 100 complete control
# Outline: as §1
# [21] = system: Kochia (Kochia scoparia); assay: Test A postemergence; conditions: postemergence; for Kochia plant response rating: 125 g ai/ha, visual injury rating on 0 to 100 scale (0 no effect, 100 complete control), approx. 10 d; for Plant response rating, Kochia: 500 g ai/ha, 0 to 100 scale, 0 no effect, 100 complete control
# Outline: as §1
SMILES,"Plant response rating, Nutsedge, Yellow ([1]; 31 g ai/ha)","Plant response rating, Nutsedge, Yellow ([1]; 62 g ai/ha)","Plant response rating, Nutsedge, Yellow ([1]; 125 g ai/ha)","Plant response rating, Nutsedge, Yellow ([1]; 250 g ai/ha)","Plant response rating, Pigweed [2]","Pigweed plant response rating (0 to 100 scale, 0 is no effect, 100 is complete control) [2]","Plant response rating, Barnyardgrass [3]","Barnyardgrass plant response rating (0 to 100 scale, 0 is no effect, 100 is complete control) [3]","Plant response rating, Ragweed [4]","Plant response rating, Ryegrass, Italian [5]","Ryegrass, Italian plant response rating (0 to 100 scale, 0 is no effect, 100 is complete control) [5]","Plant response rating, Foxtail, Giant [6]","Foxtail, Giant plant response rating (0 to 100 scale, 0 is no effect, 100 is complete control) [6]","Plant response rating, Kochia [7]","Kochia plant response rating (0 to 100 scale, 0 is no effect, 100 is complete control) [7]",Corn plant response rating [12],"Plant response rating, Corn [12]",Pigweed plant response rating [13],"Plant response rating, Pigweed [13]",Barnyardgrass plant response rating [14],also measured
O=C1NCC(c2cccc(OC(F)F)c2)C1C(=O)Nc1ccc(F)cc1F (stereo not shown) [Compound 421],0,0,0,0,20,40,90,90,30,0,30,90,90,70,80,0,70,0,30,70,"Ragweed plant response rating (0 to 100 scale, 0 is no effect, 100 is complete control) ([4]; Preemergence, 500 g ai/ha, visual injury approx. 10 d): 40; Plant response rating, Sedge, Umbrella ([8]; 500 g ai/ha): 0; Plant response rating, Barnyardgrass ([9]; 500 g ai/ha): 75; Plant response rating, Ducksalad ([10]; 500 g ai/ha): 100; Plant response rating, Rice ([11]; 500 g ai/ha): 15; Plant response rating, Barnyardgrass [14]: 90; Ragweed plant response rating [15]: 20; Plant response rating, Ragweed [15]: 30; Ryegrass, Italian plant response rating [16]: 20; Plant response rating, Ryegrass, Italian [16]: 40; Galium plant response rating [17]: 50; Plant response rating, Galium [17]: 60; Wheat plant response rating [18]: 0; Plant response rating, Wheat [18]: 40; Foxtail, Giant plant response rating [19]: 80; Plant response rating, Foxtail, Giant [19]: 90; Blackgrass plant response rating [20]: 20; Plant response rating, Blackgrass [20]: 50; Kochia plant response rating [21]: 0; Plant response rating, Kochia [21]: 20"
CN1CC(c2cccc(OC(F)(F)C(F)F)c2)C(C(=O)Nc2ccc(F)c(F)c2F)C1=O (stereo not shown) [Compound 429],0,0,0,0,80,80,90,90,50,70,80,90,100,70,80,70,80,70,80,90,"Plant response rating, Sedge, Umbrella ([8]; 250 g ai/ha): 0; Plant response rating, Barnyardgrass ([9]; 250 g ai/ha): 65; Plant response rating, Ducksalad ([10]; 250 g ai/ha): 100; Plant response rating, Rice ([11]; 250 g ai/ha): 15; Plant response rating, Barnyardgrass [14]: 90; Ragweed plant response rating [15]: 30; Plant response rating, Ragweed [15]: 50; Ryegrass, Italian plant response rating [16]: 60; Plant response rating, Ryegrass, Italian [16]: 80; Galium plant response rating [17]: 70; Plant response rating, Galium [17]: 70; Wheat plant response rating [18]: 50; Plant response rating, Wheat [18]: 60; Foxtail, Giant plant response rating [19]: 90; Plant response rating, Foxtail, Giant [19]: 90; Blackgrass plant response rating [20]: 50; Plant response rating, Blackgrass [20]: 70; Kochia plant response rating [21]: 60; Plant response rating, Kochia [21]: 70"
